ChEMBL document CHEMBL1914451, “The cephalostatins. 21. Synthesis of bis-steroidal pyrazine rhamnosides (1)” (2011)
Values after ≈ are worked out from the molar mass of the structure shown. Active and inactive are the calls of the source. No cut-off for these calls is given here.

Columns and labels:
[1] = system: P388; experiment: Antiproliferative activity against mouse P388 cells; type: functional; conditions: read-out: ED50 (the source's name)
[2] = system: BXPC-3; experiment: Growth inhibition of human BxPC3 cells; type: functional
[3] = system: MCF7; experiment: Growth inhibition of human MCF7 cells; type: functional
[4] = system: SF-268; experiment: Growth inhibition of human SF268 cells; type: functional
[5] = system: NCI-H460; experiment: Growth inhibition of human NCI-H460 cells; type: functional
[6] = system: KM-20L2; experiment: Growth inhibition of human KM20L2 cells; type: functional
[7] = system: DU-145; experiment: Growth inhibition of human DU145 cells; type: functional
[8] = system: Candida albicans; experiment: Antifungal activity against Candida albicans ATCC 90028 at 64 ug/ml by broth microdilution assay; type: functional, organism-based
[9] = system: Stenotrophomonas maltophilia; experiment: Antibacterial activity against Stenotrophomonas maltophilia ATCC 13637 at 64 ug/ml by broth microdilution assay; type: functional, organism-based
[10] = system: Micrococcus luteus; experiment: Antibacterial activity against Micrococcus luteus Presque Isle 456 at 64 ug/ml by broth microdilution assay; type: functional, organism-based
[11] = system: Staphylococcus aureus; experiment: Antibacterial activity against Staphylococcus aureus ATCC 29213 at 64 ug/ml by broth microdilution assay; type: functional, organism-based
[12] = system: Escherichia coli; experiment: Antibacterial activity against Escherichia coli ATCC 25922 at 64 ug/ml by broth microdilution assay; type: functional, organism-based
[13] = system: Enterobacter cloacae; experiment: Antibacterial activity against Enterobacter cloacae ATCC 13047 at 64 ug/ml by broth microdilution assay; type: functional, organism-based
[14] = system: Enterococcus faecalis; experiment: Antibacterial activity against Enterococcus faecalis ATCC 29212 at 64 ug/ml by broth microdilution assay; type: functional, organism-based
[15] = system: Streptococcus pneumoniae; experiment: Antibacterial activity against Streptococcus pneumoniae ATCC 6303 at 64 ug/ml by broth microdilution assay; type: functional, organism-based
[16] = system: Neisseria gonorrhoeae; experiment: Antibacterial activity against Neisseria gonorrhoeae ATCC 49226 at 64 ug/ml by broth microdilution assay; type: functional, organism-based
[17] = system: Cryptococcus neoformans; experiment: Antifungal activity against Cryptococcus neoformans ATCC 90112 at 64 ug/ml by broth microdilution assay; type: functional, organism-based
[18] = system: Enterococcus faecalis; experiment: Antibacterial activity against Enterococcus faecalis ATCC 29212 by broth microdilution assay; type: functional

SMILES: C[C@]12Cc3nc4c(nc3C[C@@H]1CC[C@@H]1[C@@H]2[C@@H](O)C[C@]2(C)/C(=C/CO)CC[C@@H]12)C[C@@]1(C)[C@@H](CC[C@@H]2[C@@H]1[C@@H](O)C[C@]1(C)/C(=C/CO)CC[C@@H]21)C4
- EC50 [1]: 1.5 mg/L (≈ 2.28 µM)
- GI50 [2]: 1.3 mg/L (≈ 1.98 µM)
- GI50 [3]: 1.3 mg/L (≈ 1.98 µM)
- GI50 [4]: 1.7 mg/L (≈ 2.59 µM)
- GI50 [5]: 2.2 mg/L (≈ 3.35 µM)
- GI50 [6]: 1.7 mg/L (≈ 2.59 µM)
- GI50 [7]: 1.8 mg/L (≈ 2.74 µM)
- Activity [8]: inactive
- Activity [9]: inactive
- Activity [10]: inactive
- Activity [11]: inactive
- Activity [12]: inactive
- Activity [13]: inactive
- Activity [14]: inactive
- Activity [15]: inactive
- Activity [16]: inactive
- Activity [17]: inactive

SMILES: CC(=O)O[C@@H]1[C@@H](OC(C)=O)[C@H](C)O[C@@H](OC/C=C2\CC[C@H]3[C@@H]4CCC5=CC(=O)CC[C@]5(C)[C@H]4[C@@H](O)C[C@]23C)[C@@H]1OC(C)=O
- EC50 [1]: > 10 mg/L

SMILES: C[C@@H]1O[C@@H](OC/C=C2\CC[C@H]3[C@@H]4CCC5=CC(=O)CC[C@]5(C)[C@H]4[C@@H](O)C[C@]23C)[C@H](O)[C@H](O)[C@H]1O
- EC50 [1]: > 100 mg/L

SMILES: C[C@@H]1O[C@H]2OC(C)(OC/C=C3\CC[C@H]4[C@@H]5CC[C@H]6Cc7nc8c(nc7C[C@]6(C)[C@H]5[C@@H](O)C[C@]34C)C[C@@H]3CC[C@@H]4[C@H]([C@@H](O)C[C@]5(C)/C(=C/COC6(C)O[C@@H]7O[C@@H](C)[C@H](O)[C@@H](O)[C@H]7O6)CC[C@@H]45)[C@@]3(C)C8)O[C@@H]2[C@H](O)[C@H]1O (stereo partly specified)
- EC50 [1]: > 10 mg/L
- GI50 [2]: 2.1 mg/L (≈ 2.03 µM)
- GI50 [3]: 2.8 mg/L (≈ 2.71 µM)
- GI50 [4]: 3 mg/L (≈ 2.9 µM)
- GI50 [5]: 3.8 mg/L (≈ 3.68 µM)
- GI50 [6]: 3.3 mg/L (≈ 3.19 µM)
- GI50 [7]: 3 mg/L (≈ 2.9 µM)
- Activity [8]: inactive
- Activity [9]: inactive
- Activity [10]: inactive
- Activity [11]: inactive
- Activity [12]: inactive
- Activity [13]: inactive
- Activity [14]: inactive
- Activity [15]: inactive
- Activity [16]: inactive
- Activity [17]: inactive

SMILES: CC(=O)O[C@@H]1[C@@H](OC(C)=O)[C@H](C)O[C@@H](OC/C=C2\CC[C@H]3[C@@H]4CC[C@H]5Cc6nc7c(nc6C[C@]5(C)[C@H]4[C@@H](O)C[C@]23C)C[C@@H]2CC[C@@H]3[C@H]([C@@H](O)C[C@]4(C)/C(=C/CO[C@@H]5O[C@@H](C)[C@H](OC(C)=O)[C@@H](OC(C)=O)[C@H]5OC(C)=O)CC[C@@H]34)[C@@]2(C)C7)[C@@H]1OC(C)=O
- EC50 [1]: > 10 mg/L

SMILES: CC(=O)OC/C=C1\CC[C@H]2[C@@H]3CC[C@H]4CC(=O)CC[C@]4(C)[C@H]3[C@@H](O)C[C@]12C
- EC50 [1]: 16.6 mg/L (≈ 44.3 µM)

SMILES: CC(=O)O[C@@H]1[C@@H](OC(C)=O)[C@H](C)O[C@H]2OC(C)(OC/C=C3\CC[C@H]4[C@@H]5CCC6=CC(=O)CC[C@]6(C)[C@H]5[C@@H](O)C[C@]34C)O[C@@H]21 (stereo partly specified)
- EC50 [1]: 9.5 mg/L (≈ 15.8 µM)

SMILES: CC(=O)OC/C=C1\CC[C@H]2[C@@H]3CC[C@H]4Cc5nc6c(nc5C[C@]4(C)[C@H]3[C@@H](O)C[C@]12C)C[C@@H]1CC[C@@H]2[C@H]([C@@H](O)C[C@]3(C)/C(=C/COC(C)=O)CC[C@@H]23)[C@@]1(C)C6
- EC50 [1]: 77.2 mg/L (≈ 104 µM)
- MIC [18]: 32 mg/L (≈ 43.2 µM)

SMILES: CC(=O)OC/C=C1\CC[C@H]2[C@@H]3CC[C@H]4CC(=O)[C@H](N=[N+]=[N-])C[C@]4(C)[C@H]3[C@@H](O)C[C@]12C
- EC50 [1]: 12 mg/L (≈ 28.9 µM)

SMILES: CC(=O)OC/C=C1\CC[C@H]2[C@@H]3CC[C@H]4CC(=O)[C@H](Br)C[C@]4(C)[C@H]3[C@@H](O)C[C@]12C
- EC50 [1]: 6.6 mg/L (≈ 14.6 µM)

SMILES: CC(=O)OC/C=C1\CC[C@H]2[C@@H]3CCC4=CC(=O)CC[C@]4(C)[C@H]3[C@@H](O)C[C@]12C
- EC50 [1]: > 100 mg/L

SMILES: CC(=O)O[C@@H]1[C@@H](OC(C)=O)[C@H](C)O[C@@H](OC/C=C2\CC[C@H]3[C@@H]4CC[C@H]5Cc6nc7c(nc6C[C@]5(C)[C@H]4[C@@H](O)C[C@]23C)C[C@@H]2CC[C@@H]3[C@H]([C@@H](O)C[C@]4(C)/C(=C/CO[C@H]5O[C@@H](C)[C@H](OC(C)=O)[C@@H](OC(C)=O)[C@H]5OC(C)=O)CC[C@@H]34)[C@@]2(C)C7)[C@@H]1OC(C)=O
- EC50 [1]: > 10 mg/L

SMILES: C=C[C@]1(C)CCC2=C1C[C@H](O)[C@H]1[C@H]2CC[C@H]2Cc3nc4c(nc3C[C@@]21C)C[C@@H]1CC[C@H]2C3=C(C[C@H](O)[C@@H]2[C@@]1(C)C4)[C@](C)(C=C)CC3
- EC50 [1]: > 10 mg/L

SMILES: CC(=O)O[C@@H]1[C@@H](OC(C)=O)[C@H](C)O[C@H](OC/C=C2\CC[C@H]3[C@@H]4CC[C@H]5Cc6nc7c(nc6C[C@]5(C)[C@H]4[C@@H](O)C[C@]23C)C[C@@H]2CC[C@@H]3[C@H]([C@@H](O)C[C@]4(C)/C(=C/CO[C@H]5O[C@@H](C)[C@H](OC(C)=O)[C@@H](OC(C)=O)[C@H]5OC(C)=O)CC[C@@H]34)[C@@]2(C)C7)[C@@H]1OC(C)=O
- EC50 [1]: > 10 mg/L

SMILES: C[C@@H]1O[C@H]2OC(C)(OC/C=C3\CC[C@H]4[C@@H]5CCC6=CC(=O)CC[C@]6(C)[C@H]5[C@@H](O)C[C@]34C)O[C@@H]2[C@H](O)[C@H]1O (stereo partly specified)
- EC50 [1]: 5.2 mg/L (≈ 10 µM)

SMILES: C[C@@H]1O[C@H](OC/C=C2\CC[C@H]3[C@@H]4CC[C@H]5Cc6nc7c(nc6C[C@]5(C)[C@H]4[C@@H](O)C[C@]23C)C[C@@H]2CC[C@@H]3[C@H]([C@@H](O)C[C@]4(C)/C(=C/CO[C@H]5O[C@@H](C)[C@H](O)[C@@H](O)[C@H]5O)CC[C@@H]34)[C@@]2(C)C7)[C@H](O)[C@H](O)[C@H]1O
- EC50 [1]: > 10 mg/L
- GI50 [2]: 1.8 mg/L (≈ 1.9 µM)
- GI50 [3]: 1.8 mg/L (≈ 1.9 µM)
- GI50 [4]: 1.8 mg/L (≈ 1.9 µM)
- GI50 [5]: 1.8 mg/L (≈ 1.9 µM)
- GI50 [6]: 1.8 mg/L (≈ 1.9 µM)
- GI50 [7]: 2 mg/L (≈ 2.11 µM)

SMILES: CC(=O)O[C@@H]1[C@@H](OC(C)=O)[C@H](C)O[C@H]2OC(C)(OC/C=C3\CC[C@H]4[C@@H]5CC[C@H]6Cc7nc8c(nc7C[C@]6(C)[C@H]5[C@@H](O)C[C@]34C)C[C@@H]3CC[C@@H]4[C@H]([C@@H](O)C[C@]5(C)/C(=C/COC6(C)O[C@@H]7O[C@@H](C)[C@H](OC(C)=O)[C@@H](OC(C)=O)[C@H]7O6)CC[C@@H]45)[C@@]3(C)C8)O[C@@H]21 (stereo partly specified)
- EC50 [1]: > 10 mg/L
